Experiments:
Assay in all cases: biochemical
Parameters in all cases: KINOMEscan competition binding panel (Eurofins DiscoverX), single concentration, % inhibition
Conditions in all cases: read-out: 7 at 1 µM % inhibition
[1] = molecular target: EGFR(S752-I759del) (Homo sapiens, UniProt P00533, DEL752-759)
In short: (§1)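 A single 1 µM concentration of each compound is screened across upwards of 400 human kinases using the KINOMEscan format.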

[2] = molecular target: MET(Y1235D) (Homo sapiens, UniProt P08581, Y1235D)
In short: as §1

[3] = molecular target: ALK(L1196M) (Homo sapiens, UniProt Q9UM73, L1196M)
In short: as §1

[4] = molecular target: KIT (Homo sapiens, UniProt P10721)
KIT, sequence (P10721 whole entry): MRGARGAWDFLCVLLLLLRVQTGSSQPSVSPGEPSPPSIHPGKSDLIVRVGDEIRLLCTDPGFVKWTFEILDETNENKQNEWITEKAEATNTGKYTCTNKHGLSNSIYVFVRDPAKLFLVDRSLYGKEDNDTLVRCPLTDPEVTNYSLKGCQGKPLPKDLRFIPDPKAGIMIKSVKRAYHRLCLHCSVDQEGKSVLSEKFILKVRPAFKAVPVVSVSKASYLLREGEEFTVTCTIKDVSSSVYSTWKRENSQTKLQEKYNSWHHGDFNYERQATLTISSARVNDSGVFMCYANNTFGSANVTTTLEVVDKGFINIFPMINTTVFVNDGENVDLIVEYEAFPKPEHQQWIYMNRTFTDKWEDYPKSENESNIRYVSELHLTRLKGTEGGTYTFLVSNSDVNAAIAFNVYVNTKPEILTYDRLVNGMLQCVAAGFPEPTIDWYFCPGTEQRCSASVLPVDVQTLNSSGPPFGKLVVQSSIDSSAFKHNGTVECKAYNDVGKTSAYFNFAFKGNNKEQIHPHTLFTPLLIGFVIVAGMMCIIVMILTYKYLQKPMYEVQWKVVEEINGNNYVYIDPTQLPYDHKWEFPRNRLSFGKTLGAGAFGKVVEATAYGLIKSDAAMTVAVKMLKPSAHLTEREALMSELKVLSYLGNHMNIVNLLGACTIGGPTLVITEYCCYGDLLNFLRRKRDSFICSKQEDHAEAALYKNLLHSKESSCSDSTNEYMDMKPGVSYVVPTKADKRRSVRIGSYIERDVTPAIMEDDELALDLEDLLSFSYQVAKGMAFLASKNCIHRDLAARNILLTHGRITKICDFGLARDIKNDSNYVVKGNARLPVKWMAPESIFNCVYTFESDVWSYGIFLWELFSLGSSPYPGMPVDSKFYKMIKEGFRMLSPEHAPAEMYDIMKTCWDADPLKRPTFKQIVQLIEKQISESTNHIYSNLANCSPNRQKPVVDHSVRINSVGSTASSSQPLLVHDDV
In short: as §1

[5] = molecular target: PIK3C2G (Homo sapiens, UniProt O75747)
In short: as §1

[6] = molecular target: PIP5K1A (Homo sapiens, UniProt Q99755)
In short: as §1

[7] = molecular target: WEE1 (Homo sapiens, UniProt P30291)
In short: as §1

[8] = molecular target: IRAK1 (Homo sapiens, UniProt P51617)
In short: as §1

[9] = molecular target: PAK1 (Homo sapiens, UniProt Q13153)
In short: as §1

[10] = molecular target: T1, CDK11 (Homo sapiens, UniProt Q9BWU1)
T1 construct: gene CDK19
T1 sequence (Q9BWU1 whole entry): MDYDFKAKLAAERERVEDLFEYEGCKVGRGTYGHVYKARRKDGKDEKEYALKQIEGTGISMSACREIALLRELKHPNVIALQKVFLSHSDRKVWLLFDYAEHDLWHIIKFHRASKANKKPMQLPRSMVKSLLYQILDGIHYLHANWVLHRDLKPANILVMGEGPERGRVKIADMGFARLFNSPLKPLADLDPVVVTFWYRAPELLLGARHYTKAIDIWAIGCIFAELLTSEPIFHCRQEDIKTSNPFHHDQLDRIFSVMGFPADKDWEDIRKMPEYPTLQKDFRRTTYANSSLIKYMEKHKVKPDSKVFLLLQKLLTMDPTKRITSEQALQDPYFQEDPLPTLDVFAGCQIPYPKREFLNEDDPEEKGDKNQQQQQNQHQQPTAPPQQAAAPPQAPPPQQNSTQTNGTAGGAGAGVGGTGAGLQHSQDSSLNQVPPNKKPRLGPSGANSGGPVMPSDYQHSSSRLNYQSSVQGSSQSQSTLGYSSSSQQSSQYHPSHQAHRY
In short: as §1

[11] = molecular target: CDK8 (Homo sapiens, UniProt P49336)
In short: as §1

[12] = molecular target: RET(V804M) (Homo sapiens, UniProt P07949, V804M)
RET(V804M), sequence (P07949 whole entry V804M): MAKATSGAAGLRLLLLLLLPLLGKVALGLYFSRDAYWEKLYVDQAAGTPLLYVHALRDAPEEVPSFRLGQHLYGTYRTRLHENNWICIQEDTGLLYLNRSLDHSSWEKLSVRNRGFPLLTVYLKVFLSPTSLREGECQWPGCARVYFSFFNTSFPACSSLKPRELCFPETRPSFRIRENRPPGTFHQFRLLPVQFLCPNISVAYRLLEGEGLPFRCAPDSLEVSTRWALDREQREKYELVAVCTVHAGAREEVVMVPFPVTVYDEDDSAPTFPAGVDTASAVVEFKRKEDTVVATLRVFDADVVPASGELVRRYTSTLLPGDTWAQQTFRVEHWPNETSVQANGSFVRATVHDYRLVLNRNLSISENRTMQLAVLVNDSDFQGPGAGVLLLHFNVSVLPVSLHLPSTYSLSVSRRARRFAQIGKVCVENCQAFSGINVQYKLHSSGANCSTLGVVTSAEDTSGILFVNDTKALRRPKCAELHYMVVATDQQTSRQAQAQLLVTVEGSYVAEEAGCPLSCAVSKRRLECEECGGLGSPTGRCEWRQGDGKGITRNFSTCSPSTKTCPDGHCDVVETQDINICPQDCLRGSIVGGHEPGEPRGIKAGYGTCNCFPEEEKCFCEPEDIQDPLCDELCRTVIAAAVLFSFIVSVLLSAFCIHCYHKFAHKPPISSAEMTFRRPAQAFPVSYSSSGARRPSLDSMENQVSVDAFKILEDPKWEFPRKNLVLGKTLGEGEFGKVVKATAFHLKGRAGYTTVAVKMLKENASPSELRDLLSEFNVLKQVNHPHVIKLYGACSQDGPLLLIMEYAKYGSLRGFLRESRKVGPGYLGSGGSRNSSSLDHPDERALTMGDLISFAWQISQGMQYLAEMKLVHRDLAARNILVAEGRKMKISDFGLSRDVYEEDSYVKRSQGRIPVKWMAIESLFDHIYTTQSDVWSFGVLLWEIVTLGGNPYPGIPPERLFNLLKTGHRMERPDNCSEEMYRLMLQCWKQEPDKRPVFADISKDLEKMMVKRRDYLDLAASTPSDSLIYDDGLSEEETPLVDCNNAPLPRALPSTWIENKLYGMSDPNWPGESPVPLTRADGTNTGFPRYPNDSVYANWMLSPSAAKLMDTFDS
In short: as §1

[13] = molecular target: DYRK1B (Homo sapiens, UniProt Q9Y463)
In short: as §1

[14] = molecular target: TESK1 (Homo sapiens, UniProt Q15569)
TESK1, sequence (Q15569 whole entry): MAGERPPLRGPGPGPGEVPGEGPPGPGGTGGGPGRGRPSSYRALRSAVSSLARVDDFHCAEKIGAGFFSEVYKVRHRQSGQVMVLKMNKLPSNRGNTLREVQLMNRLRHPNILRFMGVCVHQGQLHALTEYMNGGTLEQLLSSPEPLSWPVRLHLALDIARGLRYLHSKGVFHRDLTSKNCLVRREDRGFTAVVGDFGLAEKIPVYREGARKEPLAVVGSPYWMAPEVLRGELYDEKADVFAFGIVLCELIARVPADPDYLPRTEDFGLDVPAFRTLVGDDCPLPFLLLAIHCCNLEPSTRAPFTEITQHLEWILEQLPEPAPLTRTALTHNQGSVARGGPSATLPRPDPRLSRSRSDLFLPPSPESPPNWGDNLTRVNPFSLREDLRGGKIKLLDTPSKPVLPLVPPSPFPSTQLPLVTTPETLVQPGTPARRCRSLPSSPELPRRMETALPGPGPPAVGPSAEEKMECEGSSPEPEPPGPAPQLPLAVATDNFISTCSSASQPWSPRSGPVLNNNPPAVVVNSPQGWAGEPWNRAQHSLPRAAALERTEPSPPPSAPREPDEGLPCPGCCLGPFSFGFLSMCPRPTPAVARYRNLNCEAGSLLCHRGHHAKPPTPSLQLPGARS
In short: as §1

[15] = molecular target: T2, JAK2(JH1domain-catalytic) (Homo sapiens, UniProt O60674)
T2 construct: JH1domain-catalytic
In short: as §1

[16] = molecular target: TNK2 (Homo sapiens, UniProt Q07912)
In short: as §1

[17] = molecular target: T3, OSR1 (Homo sapiens, UniProt O95747)
T3 construct: gene OXSR1
In short: as §1

[18] = molecular target: PAK3 (Homo sapiens, UniProt O75914)
PAK3, sequence (O75914 whole entry): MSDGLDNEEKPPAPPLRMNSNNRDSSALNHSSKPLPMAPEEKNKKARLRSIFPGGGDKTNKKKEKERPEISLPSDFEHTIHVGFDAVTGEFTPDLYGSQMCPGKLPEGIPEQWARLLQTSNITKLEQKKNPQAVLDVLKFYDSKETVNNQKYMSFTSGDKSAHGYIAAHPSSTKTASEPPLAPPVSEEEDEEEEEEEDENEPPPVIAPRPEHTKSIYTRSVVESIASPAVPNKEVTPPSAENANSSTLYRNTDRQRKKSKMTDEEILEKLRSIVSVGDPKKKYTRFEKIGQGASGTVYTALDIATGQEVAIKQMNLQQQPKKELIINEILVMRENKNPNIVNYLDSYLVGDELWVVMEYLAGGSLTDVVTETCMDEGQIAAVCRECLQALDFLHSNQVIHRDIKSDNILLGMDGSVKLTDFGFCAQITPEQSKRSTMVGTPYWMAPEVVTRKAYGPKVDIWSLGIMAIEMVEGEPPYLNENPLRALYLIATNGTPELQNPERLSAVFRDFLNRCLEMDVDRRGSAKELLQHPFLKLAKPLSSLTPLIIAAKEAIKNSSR
In short: as §1

[19] = molecular target: ACVR1 (Homo sapiens, UniProt Q04771)
In short: as §1

[20] = molecular target: T4, ERK3 (Homo sapiens, UniProt Q16659)
T4 construct: gene MAPK6
In short: as §1

[21] = molecular target: ULK1 (Homo sapiens, UniProt O75385)
In short: as §1

[22] = molecular target: T5, SGK (Homo sapiens, UniProt O00141)
T5 construct: gene SGK1
In short: as §1

[23] = molecular target: SGK3 (Homo sapiens, UniProt Q96BR1)
In short: as §1

[24] = molecular target: FLT3 (Homo sapiens, UniProt P36888)
In short: as §1

EGFR(S752-I759del), sequence (P00533 with tags, fused parts or gaps DEL752-759): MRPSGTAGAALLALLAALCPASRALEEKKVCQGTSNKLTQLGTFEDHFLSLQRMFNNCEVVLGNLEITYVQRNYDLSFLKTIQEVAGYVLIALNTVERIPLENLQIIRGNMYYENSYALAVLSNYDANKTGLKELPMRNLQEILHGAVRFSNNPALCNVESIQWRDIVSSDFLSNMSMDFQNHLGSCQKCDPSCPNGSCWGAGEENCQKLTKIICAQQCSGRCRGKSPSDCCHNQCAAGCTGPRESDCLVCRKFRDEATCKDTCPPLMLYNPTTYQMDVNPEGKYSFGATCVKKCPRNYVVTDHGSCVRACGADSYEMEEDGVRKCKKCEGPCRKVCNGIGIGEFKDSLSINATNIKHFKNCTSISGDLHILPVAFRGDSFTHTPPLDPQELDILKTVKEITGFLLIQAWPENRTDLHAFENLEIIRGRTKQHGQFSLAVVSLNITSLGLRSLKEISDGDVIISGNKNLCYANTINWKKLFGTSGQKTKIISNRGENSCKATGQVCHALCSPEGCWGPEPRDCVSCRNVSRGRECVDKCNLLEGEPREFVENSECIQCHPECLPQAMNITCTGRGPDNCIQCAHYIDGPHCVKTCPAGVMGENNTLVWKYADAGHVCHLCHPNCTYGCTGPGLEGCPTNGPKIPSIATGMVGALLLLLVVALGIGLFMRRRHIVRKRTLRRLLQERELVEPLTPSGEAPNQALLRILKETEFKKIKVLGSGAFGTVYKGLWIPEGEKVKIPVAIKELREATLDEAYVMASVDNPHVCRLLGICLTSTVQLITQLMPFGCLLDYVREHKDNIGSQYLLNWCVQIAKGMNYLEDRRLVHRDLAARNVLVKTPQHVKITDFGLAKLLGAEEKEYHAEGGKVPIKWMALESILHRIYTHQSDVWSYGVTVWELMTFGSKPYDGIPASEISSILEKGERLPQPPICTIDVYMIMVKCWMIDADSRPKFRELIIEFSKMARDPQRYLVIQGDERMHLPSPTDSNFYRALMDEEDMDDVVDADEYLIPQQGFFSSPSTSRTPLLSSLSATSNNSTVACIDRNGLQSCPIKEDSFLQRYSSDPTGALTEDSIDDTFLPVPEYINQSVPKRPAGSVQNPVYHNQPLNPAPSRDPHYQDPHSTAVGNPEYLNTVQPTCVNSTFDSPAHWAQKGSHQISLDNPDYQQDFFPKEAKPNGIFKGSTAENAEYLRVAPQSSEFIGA

`CNS(=O)(=O)c1ccc(N(C)C)c(Nc2ncnc3cc(OC)c(OC)cc23)c1` [compound 7, 3-((6,7-dimethoxyquinazolin-4-yl)amino)-4-(dimethylamino)-N-methylbenzenesulfonamide] showed an inhibition at 1 µM [1] of 29%, an inhibition at 1 µM [2] of 33% and an inhibition at 1 µM [3] of 5%. The inhibition at 1 µM [4] was 13%, the inhibition at 1 µM [5] was 20% and the inhibition at 1 µM [6] was 0%. It also gave an inhibition at 1 µM [7] of 0%, an inhibition at 1 µM [8] of 68% and an inhibition at 1 µM [9] of 0%. For the same compound, the inhibition at 1 µM [10] was 0%, the inhibition at 1 µM [11] was 0% and the inhibition at 1 µM [12] was 0%. The inhibition at 1 µM [13] was 0%, the inhibition at 1 µM [14] was 0% and the inhibition at 1 µM [15] was 9%. The inhibition at 1 µM [16] was 26%, the inhibition at 1 µM [17] was 22% and the inhibition at 1 µM [18] was 54%. For the same compound, the inhibition at 1 µM [19] was 0%, the inhibition at 1 µM [20] was 0% and the inhibition at 1 µM [21] was 18%. It also gave an inhibition at 1 µM [22] of 1%, an inhibition at 1 µM [23] of 1% and an inhibition at 1 µM [24] of 7%.

Source: publication PMC7180948, “New Insights into 4-Anilinoquinazolines as Inhibitors of Cardiac Troponin I–Interacting Kinase (TNNi3K)” (Molecules, 2020)
